Laboratory results as given in US11672795B2, “Compositions and methods for treating pulmonary vascular disease” (UNIVERSITY OF PITTSBURGH-OF THE COMMONWEALTH SYSTEM OF …, priority 2016, dated 2023).

Experiments:
[1] = test system: GLS1; assay: GLS1 expression by RT-qPCR in monocrotaline-exposed rats; format: in vivo, rat; settings: for GLS expression: CD31+ cells of monocrotaline-exposed rats, daily BAPN or daily i.p. verteporfin 25 mg/kg; for GLS1 expression in lungs: monocrotaline-exposed rats, daily BAPN or daily i.p. verteporfin, vs vehicle, RT-qPCR
Experimental: (§1) Messenger RNAs were reverse transcribed using the Multiscript RT kit (Life Technologies) to generate cDNA. cDNA was amplified via fluorescently labeled Taqman primer sets using an Applied Biosystems 7900HT Fast Real Time PCR device. To specifically determine the relative expression of the two GLS1 isoforms KGA and GAC, TaqMan gene expression assays Hs01014019_m1 and Hs01022166_m1 were used respectively. Fold-change of RNA species was calculated using the formula (2^−ΔΔCt), normalized to RPLP0 expression.
(§2) As previously reported (8, 11), lobes of lung tissue from a rat were diced with scissors, to which 200 μL of collagenase D solution (Sigma) was added for a final concentration of 2 mg/ml collagenase D in 4.8 mL HEPES buffer (pH=7.4). After incubation for 30 min at 37° C. with automated rotation, 20 μL of DNase I (Sigma, final concentration of 80 U/mL DNase I) was added and incubated on ice for 30 min. The solution was filtered twice by a 70 μm cell strainer (BD Biosciences) to yield a single cell suspension. After two rounds of PBS wash, cell pelleting, and resuspension, the ACK lysing buffer (Gibco) was used to remove erythrocytes. Remained cells were incubated 30 min at 4° C. with a mouse anti-rat-CD31 antibody (BD Pharmigen 555025). Cells were PBS washed twice and incubated 15 min with anti-mouse IgG1 MicroBeads (Miltenyi Biotec) according to the manufacturer protocol. Single CD31-positive cells were then collected using an autoMACS Pro Separator, per the manufacturer's instructions (Miltenyi Biotec). The purity (>95%) of CD31 positive cells was confirmed by flow cytometric analysis by a FACScan flow cytometer (BD Biosciences) after cells labeling with the FITC-conjugated anti-CD31 (ab33858, Abcam).

[2] = test system: YAP/TAZ target genes; assay: RT-qPCR of YAP/TAZ target genes in CD31+ cells of monocrotaline-exposed rats; format: in vivo, rat; settings: daily BAPN or daily i.p. verteporfin 25 mg/kg
Experimental: as §1, §2
To induce PH, male Sprague-Dawley rats (10-14 week old) were injected intraperitoneally with 60 mg/kg monocrotaline (Sigma-Aldrich). After two days, rats underwent intraperitoneal injection daily with 25 mg/kg of verteporfin (Active Biochemicals Company, Ltd) solubilized in 5% dimethyl sulfoxide (DMSO, Sigma-Aldrich). […]

[3] = test system: PAECs; assay: Apoptosis of PAECs on soft or stiff matrix (caspase 3/7 activity, cleaved caspase-3 staining); format: cell-based, human
Experimental: A-C) PAECs were plated on soft (1 kPa) or stiff (50 kPa) matrix and exposed to indicated treatments. Apoptosis (A-C) and proliferation (B-C) were quantified 48 h after plating. […] In all panels, mean expression in control groups (soft matrix) was assigned a fold change of 1, to which relevant samples were compared. Data are expressed as mean±SD (*P<0.05; ** P<0.01, ***P<0.001).
(§3) After various indicated treatments, cultured cells were fixed with PBS/PFA 4% for 10 min and permeabilized with PBS/Triton 100×0.1% for 10 min. The cells were then incubated with anti-PCNA (#4912; 1/100; Invitrogen), anti-Ki67 (ab15580; 1/200; Abcam), and/or anti-cleaved caspase-3 (1/200; Cell Signaling) at room temperature for 2 hours. Secondary antibodies coupled with Alexa-594 and/or Alexa-488 (Thermo Scientific) were used at 1/500. Nuclei were counterstained with DAPI (Sigma).
Caspase 3/7 activity was quantified using the Caspase-Glo 3/7 Assay (Promega), according to manufacturer's instructions. Briefly, cells were plated on hydrogel of different stiffness and treated as described. Twenty four hours after plating, cells were cultured in the presence or absence of serum for twenty-four hours. Cells were then lysed and 10 μg of total protein were incubated for 1 h with the caspase substrates, and luminescence was quantified by plate reader (SynergyHTX multi-mode reader, Biotek).

[4] = test system: PAECs; assay: Proliferation of PAECs (cell count, BrdU pulse, PCNA staining); format: cell-based, human; settings: PAECs, stiff matrix, 48 h after plating
Experimental: A-C) PAECs were plated on soft (1 kPa) or stiff (50 kPa) matrix and exposed to indicated treatments. Apoptosis (A-C) and proliferation (B-C) were quantified 48 h after plating. […] Apoptosis (as reflected by cleaved caspase-3 staining, CC-3+) was increased by serum starvation in both soft and stiff conditions but was not affected by GLS1 inhibition. In all panels, mean expression in control groups (soft matrix) was assigned a fold change of 1, to which relevant samples were compared. Data are expressed as mean±SD (*P<0.05; ** P<0.01, ***P<0.001).
as §3
After specified pre-treatment or transfection protocols as indicated, PAECs or PASMCs were plated in triplicate in 6 well plates at 30 000 cells per well. After overnight incubation for cells to adhere, 6 wells were counted to determine initial count at time of treatments (glutamate, aspartate, BPTES, DON or C968). After 2 days, 4 days or 6 days, the contents of the wells were trypsinized and counted, and proliferation rate was calculated.
Exponentially growing cells were plated in the indicated matrix for 48 hours.

[5] = test system: PAAFs; assay: Metabolic activation of PAAFs cultivated on stiff matrix; format: cell-based
Text: A-C) Pharmacological inhibition of GLS1 by either BPTES, C968 or CB839 blunted metabolic activation of PAAFs cultivated on stiff matrix as reflected by decreased glutaminolysis (A), glycolysis (B) and aspartate production (C). D-E) Pharmacological inhibition of GLS1 by either BPTES, C968 or CB839 decreased PAAFs dependent ECM remodelling upon stimulation by pro-inflammatory cytokines (EDN1, IL6 or TGF-b). […] G-H) Fibrilar collagen visualization (G) and quantification (H) by picrosirius red staining confirmed a decreased of ECM remodelling by activated PAAF (TGF-b) in presence of GLS1 inhibitors. I-M) PAAFs were cultivated upon indicated treatments. Cells were removed and pulmonary arterial endothelial cells (PAECs) were cultivated on the matrix synthesized by the PAAF. […] Data are expressed as mean±SEM (*P<0.05, § P<0.01, #P<0.001) of at least 3 independent experiments performed in triplicate. Paired samples were compared by 2-tailed Student's t test, while 1-way ANOVA and post-hoc Tukey's tests were used for group comparisons.

SMILES | GLS expression [1] | GLS1 expression in lungs [1] | CTGF and CYR61, YAP/TAZ target genes (YAP1-dependent gene expression) [2] | apoptosis (cleaved caspase-3 staining, CC-3+) ([3]; serum starvation, soft and stiff conditions) | caspase 3/7 activity ([3]; soft (1 kPa) or stiff (50 kPa) matrix, 24 h after serum depletion, vs vehicle control) | proliferation in stiff matrix (PCNA+) [4] | aspartate production [5] | glutaminolysis [5] | glycolysis [5] | metabolic activation of PAAFs [5] | GLS expression ([1]; listed as verteporfin) | CTGF and CYR61, YAP/TAZ target genes (YAP1-dependent gene expression) ([2]; listed as verteporfin)
N#CCCN [BAPN, β-aminoproprionitrile] | decrease | decreased | decrease |  |  |  |  |  |  |  |  | 
CN(C)c1ccc(C2Nc3ccc4ccccc4c3C3=C2C(=O)CC(C)(C)C3)cc1Br (stereo not shown) [C968, 5-(3-Bromo-4-(dimethylamino)phenyl)-2,2-dimethyl-2,3,5,6-tetrahydrobenzo[a]phenanthridin-4(1H)-one] |  |  |  | not affected | No significant changes | decreased | decreased | decreased | decreased | blunted |  | 
O=C(Cc1cccc(OC(F)(F)F)c1)Nc1ccc(CCCCc2nnc(NC(=O)Cc3ccccn3)s2)nn1 [CB839] |  |  |  |  |  |  | decreased | decreased | decreased | blunted |  | 
C=Cc1c(C)c2cc3nc(cc4[nH]c(cc5nc(cc1[nH]2)C(C)=C5CCC(=O)O)c(CCC(=O)OC)c4C)[C@@]1(C)C3=CC=C(C(=O)OC)[C@H]1C(=O)OC [Verteporfin, 3-[(23S,24R)-14-ethenyl-5-(3-methoxy-3-oxopropyl)-22,23-bis(methoxycarbonyl)-4,10,15,24-tetramethyl-25,26,27,28-tetraazahexacyclo[16.6.1.1^3,6.1^8,11.1^13,16.0^19,24]octacosa-1,3,5,7,9,11(27),12,14,16,18(25),19,21-dodecaen-9-yl]propanoic acid] | decrease | decreased | decrease |  |  |  |  |  |  |  | improved | decreased
